pIC50: −log10 of the molar value.
These molecules were tested on VEGF induced increases in intracellular calcium levels in HUVEC (human umbilical vein endothelial cells) (assay: VEGF Stimulated Ca++ Signal in vitro (FLIPR)). Settings: 10 μM, VEGF 5 ng/mL.
Format: cell-based
Experimental: VEGF Stimulated Ca^++ Signal in vitro
Automated FLIPR (Fluorometric Imaging Plate Reader) technology was used to screen for inhibitors of VEGF induced increases in intracellular calcium levels in fluorescent dye loaded endothelial cells. HUVEC (human umbilical vein endothelial cells) (Clonetics) were seeded in 96-well fibronectin coated black-walled plates overnight at 37° C./5%CO2. Cells were loaded with calcium indicator Fluo-4 for 45 minutes at 37° C. Cells were washed 4 times (Original Cell Wash, Labsystems) to remove extracellular dye. Test compounds were reconstituted in 100% DMSO and added to the cells to give a final DMSO concentration of 0.1%. For screening, cells were pre-incubated with test agents for 30 minutes, at a single concentration (10 μM) or at concentrations ranging from 0.01 to 10.0 μM followed by VEGF stimulation (5 ng/mL). Changes in fluorescence at 516 nm were measured simultaneously in all 96 wells using a cooled CCD camera. Data were generated by determining max-min fluorescence levels for unstimulated, stimulated, and drug treated samples. IC50 values for test compounds were calculated from % inhibition of VEGF stimulated responses in the absence of inhibitor.

SMILES | VEGF Stimulated Ca^++ signal assay % inhibition @ 10 μM
COc1ccc(NC=C2C(=O)Nc3ccc(Cl)cc32)cc1F [Example 105, 5-Chloro-3-[(3-flouro-4-methoxyphenylamino)-methylene]-1,3-dihydro-indol-2-one] | 17.50%
O=C1Nc2ccc(F)cc2C1=CNc1ccc(N2CCCCC2)cc1 [Example 221] | 97.59%

Same assay, conditions: 0.01 to 10.0 μM, VEGF 5 ng/mL

SMILES | pIC50
O=C1Nc2ccc(F)cc2C1=CNc1ccc(N2CCCCC2)cc1 [Example 221] | 6.03

Same assay, conditions: Homo sapiens, 10 μM, VEGF 5 ng/mL

SMILES | inhibition at 10 µM
Cc1ccc(NC=C2C(=O)Nc3ccc(Cl)cc32)cc1O [Example 71, 3-[(3-Hydroxy-4-methylphenylamino)-methylene]-5-chloro-1,3-dihydro-indol-2-one] | 38.5%
O=C1Nc2ccc(Cl)cc2C1=CNc1ccccc1 [Example 74, 3-[(Phenylamino)-methylene]-5-chloro-1,3-dihydro-indol-2-one] | 44%
COc1cc(NC=C2C(=O)Nc3ccc(Cl)cc32)cc(OC)c1 [Example 75, 3-[(3,5-Dimethoxyphenylamino)-methylene]-5-chloro-1,3-dihydro-indol-2-one] | -18%
O=C1Nc2ccc(Cl)cc2C1=CNc1cccc(O)c1 [Example 76, 3-[(3-Hydroxyphenylamino)-methylene]-5-chloro-1,3-dihydro-indol-2-one] | 55.5%
O=C1Nc2ccc(Cl)cc2C1=CNc1ccc(O)cc1 [Example 77, 3-[(4-Hydroxyphenylamino)-methylene]-5-chloro-1,3-dihydro-indol-2-one] | 35%
Cc1cc(C)cc(NC=C2C(=O)Nc3ccc(Cl)cc32)c1 [Example 78, 3-[(3,5-Dimethylphenylamino)-methylene]-5-chloro-1,3-dihydro-indol-2-one] | 8%
Cc1ccc(NC=C2C(=O)Nc3ccc(Cl)cc32)cc1 [Example 79, 3-[(4-Methylphenylamino)-methylene]-5-chloro-1,3-dihydro-indol-2-one] | -4%
O=C1Nc2ccccc2C1=CNc1ccc2c(c1)OCO2 [Example 80, 3-[(3,4-Methylenedioxyphenylamino)-methylene]-1,3-dihydro-indol-2-one] | 3.5%
O=C1Nc2ccccc2C1=CNc1ccc(C(=O)O)cc1 [Example 86, 4-[(2-Oxo-1,2-dihydro-indol-3-ylidenemethyl)-amino]-benzoic acid] | 48.5%
COC(=O)c1ccc(NC=C2C(=O)Nc3ccccc32)cc1OC [Example 89, 2-Methoxy-4-[(2-oxo-1,2-dihydro-indol-3-ylidenemethyl)-amino]-benzoic acid methyl ester] | 39.5%
Cc1ccc(NC=C2C(=O)Nc3cccc(C)c32)cc1C [Example 95, 3-[(3,4-Dimethyl-phenylamino)-methylene]-4-methyl-1,3-dihydro-indol-2-one] | 14%
Cc1cccc2c1C(=CNc1ccc(C(C)(C)C)cc1)C(=O)N2 [Example 98, 3-[(4-tert-Butyl-phenylamino)-methylene]-4-methyl-1,3-dihydro-indol-2-one] | 47.5%
CC(C)(C)c1ccc(NC=C2C(=O)Nc3ccc(Cl)cc32)cc1 [Example 100, 5-Chloro-3-[(4-t-butyl-phenylamino)-methylene]-1,3-dihydro-indol-2-one] | 6%
COc1cc(NC=C2C(=O)Nc3ccc(Cl)cc32)c(OC)cc1Cl [Example 104, 5-Chloro-3-[(4-chloro-2,5-dimethoxy-phenylamino)-methylene]-1,3-dihydro-indol-2-one] | -14.5%
CCOc1ccc(NC=C2C(=O)Nc3ccc(Cl)cc32)cc1 [Example 107, 5-Chloro-3-[(4-ethoxyphenylamino)-methylene]-1,3-dihydro-indol-2-one] | 41.5%
O=C1Nc2ccc(Cl)cc2C1=CNc1ccc(O)c(C(=O)O)c1 [Example 108, 5-(5-Chloro-2-oxo-1,2-dihydro-indol-3-ylidenemethylamino)-2-hydroxybenzoic acid] | -14.5%
Cc1cc(NC=C2C(=O)Nc3ccc(Cl)cc32)ccc1C(C)C [Example 112, 5-Chloro-3-[(4-i-propyl-3-methylphenylamino)-methylene]-1,3-dihydro-indol-2-one] | 10.5%
Cc1cccc2c1C(=CNc1ccc(O)c(C(=O)O)c1)C(=O)N2 [Example 118, 2-Hydroxy-5-[(4-methyl-2-oxo-1,2-dihydro-indol-3-ylidenemethyl)-amino]-benzoic acid] | -27%
Cc1cccc2c1C(=CNc1ccc(OC(F)(F)F)cc1)C(=O)N2 [Example 120, 4-Methyl-3-[(4-trifluoromethoxy-phenylamino)-methylene]-1,3-dihydro-indol-2-one] | 12.7%
COc1ccc(NC=C2C(=O)Nc3cccc(C)c32)cc1C(F)(F)F [Example 121, 3-[(4-Methoxy-3-trifluoromethyl-phenylamino)-methylene]-4-methyl-1,3-dihydro-indol-2-one] | 4.86%
CCc1ccccc1NC=C1C(=O)Nc2cccc(C)c21 [Example 127, 3-[(2-Ethyl-phenylamino)-methylene]-4-methyl-1,3-dihydro-indol-2-one] | -11.8%
Cc1cccc2c1C(=CNc1ccc(C(N)=O)cc1)C(=O)N2 [Example 129, 4-[(4-Methyl-2-oxo-1,2-dihydro-indol-3-ylidenemethyl)-amino]-benzamide] | 99%
Cc1cc(NC=C2C(=O)Nc3cccc(C)c32)ccc1O [Example 132, 3-[(4-Hydroxy-3-methyl-phenylamino)-methylene]-4-methyl-1,3-dihydro-indol-2-one] | 73%
Cc1cc(NC=C2C(=O)Nc3ccccc32)ccc1O [Example 133, 3-[(4-Hydroxy-3-methyl-phenylamino)-methylene]-1,3-dihydro-indol-2-one] | 73%
CCc1cccc(NC=C2C(=O)Nc3ccc(Cl)cc32)c1 [Example 148, 5-Chloro-3-[(3-ethyl-phenylamino)-methylene]-1,3-dihydro-indol-2-one] | 42.2%
N#Cc1ccc(NC=C2C(=O)Nc3ccc(Cl)cc32)cc1 [Example 152, 4-[(5-Chloro-2-oxo-1,2-dihydro-indol-3-ylidenemethyl)-amino]-benzonitrile] | 18.7%
Cc1cccc2c1C(=CNc1ccc(C(=O)O)c(O)c1)C(=O)N2 [Example 155, 2-Hydroxy-4-[(4-methyl-2-oxo-1,2-dihydro-indol-3-ylidenemethyl)-amino]-benzoic acid] | 97.2%
CCN(CC)Cc1cc(NC=C2C(=O)Nc3cccc(C)c32)ccc1O [Example 161, 3-[(3-Diethylaminomethyl-4-hydroxy-phenylamino)-methylene]-4-methyl-1,3-dihydro-indol-2-one] | 95.2%

Same assay, conditions: Homo sapiens, 0.01 to 10.0 μM, VEGF 5 ng/mL

SMILES | pIC50
Cc1cccc2c1C(=CNc1ccc(C(N)=O)cc1)C(=O)N2 [Example 129, 4-[(4-Methyl-2-oxo-1,2-dihydro-indol-3-ylidenemethyl)-amino]-benzamide] | 5.90
Cc1cc(NC=C2C(=O)Nc3cccc(C)c32)ccc1O [Example 132, 3-[(4-Hydroxy-3-methyl-phenylamino)-methylene]-4-methyl-1,3-dihydro-indol-2-one] | 5.13
Cc1cc(NC=C2C(=O)Nc3ccccc32)ccc1O [Example 133, 3-[(4-Hydroxy-3-methyl-phenylamino)-methylene]-1,3-dihydro-indol-2-one] | 5.31
Cc1cccc2c1C(=CNc1ccc(C(=O)O)c(O)c1)C(=O)N2 [Example 155, 2-Hydroxy-4-[(4-methyl-2-oxo-1,2-dihydro-indol-3-ylidenemethyl)-amino]-benzoic acid] | 5.59
CN1CCN(CCCNc2ccc(NC=C3C(=O)Nc4ccccc43)cc2)CC1 [Example 302, 3-({4-[3-(4-Methyl-piperazin-1-yl)-propylamino]-phenylamino}-methylene)-1,3-dihydro-indol-2-one] | 6.15
Cc1cccc2c1C(=CNc1ccc(NCCCN3CCN(C)CC3)cc1)C(=O)N2 [Example 303, 4-Methyl-3-({4-[3-(4-methyl-piperazin-1-yl)-propylamino]-phenylamino}-methylene)-1,3-dihydro-indol-2-one] | 6.28
CN1CCN(CCCNc2ccc(NC=C3C(=O)Nc4cc(F)ccc43)cc2)CC1 [Example 304, 6-Fluoro-3-({4-[3-(4-methyl-piperazin-1-yl)-propylamino]-phenylamino}-methylene)-1,3-dihydro-indol-2-one] | 6.92
O=C1Nc2ccccc2C1=CNc1ccc(CCCCN2CCOCC2)cc1 [Example 312, 3-{[4-(4-Morpholin-4-yl-butyl)-phenylamino]-methylene}-1,3-dihydro-indol-2-one] | 6.27
O=C1Nc2ccc(Cl)cc2C1=CNc1ccc(CCCCN2CCOCC2)cc1 [Example 313, 5-Chloro-3-{[4-(4-morpholin-4-yl-butyl)-phenylamino]-methylene}-1,3-dihydro-indol-2-one] | 6.00
Cc1cccc2c1C(=CNc1ccc(CCCCN3CCOCC3)cc1)C(=O)N2 [Example 314, 4-Methyl-3-{[4-(4-morpholin-4-yl-butyl)-phenylamino]-methylene}-1,3-dihydro-indol-2-one] | 6.49
O=C1Nc2cccc(F)c2C1=CNc1ccc(CCCCN2CCOCC2)cc1 [Example 315, 4-Fluoro-3-{[4-(4-morpholin-4-yl-butyl)-phenylamino]-methylene}-1,3-dihydro-indol-2-one] | 5.81
O=C1Nc2ccc(F)cc2C1=CNc1ccc(CCCCN2CCOCC2)cc1 [Example 316, 5-Fluoro-3-{[4-(4-morpholin-4-yl-butyl)-phenylamino]-methylene}-1,3-dihydro-indol-2-one] | 6.23
O=C1Nc2cc(F)ccc2C1=CNc1ccc(CCCCN2CCOCC2)cc1 [Example 317, 6-Fluoro-3-{[4-(4-morpholin-4-yl-butyl)-phenylamino]-methylene}-1,3-dihydro-indol-2-one] | 6.77
O=C1Nc2ccc(Cl)cc2C1=CNc1ccc(CCCCN2CCCCC2)cc1 [Example 319, 5-Chloro-3-{[4-(4-piperidin-1-yl-butyl)-phenylamino]-methylene}-1,3-dihydro-indol-2-one] | 6.02

— US20030225152A1, “3-(Arylamino)methylene-1, 3-dihydro-2h-indol-2-ones as kinase inhibitors” (priority 2001, published 2003)
